Data on three compounds can be found in PMC10669046, “Probing the Proton-Gated ASIC Channels Using Tetraalkylammonium Ions” (Biomolecules, 2023).

The target of experiment [1] is T1, ASIC3 (Rattus norvegicus, UniProt O35240).
T1 sequence (O35240 1-533): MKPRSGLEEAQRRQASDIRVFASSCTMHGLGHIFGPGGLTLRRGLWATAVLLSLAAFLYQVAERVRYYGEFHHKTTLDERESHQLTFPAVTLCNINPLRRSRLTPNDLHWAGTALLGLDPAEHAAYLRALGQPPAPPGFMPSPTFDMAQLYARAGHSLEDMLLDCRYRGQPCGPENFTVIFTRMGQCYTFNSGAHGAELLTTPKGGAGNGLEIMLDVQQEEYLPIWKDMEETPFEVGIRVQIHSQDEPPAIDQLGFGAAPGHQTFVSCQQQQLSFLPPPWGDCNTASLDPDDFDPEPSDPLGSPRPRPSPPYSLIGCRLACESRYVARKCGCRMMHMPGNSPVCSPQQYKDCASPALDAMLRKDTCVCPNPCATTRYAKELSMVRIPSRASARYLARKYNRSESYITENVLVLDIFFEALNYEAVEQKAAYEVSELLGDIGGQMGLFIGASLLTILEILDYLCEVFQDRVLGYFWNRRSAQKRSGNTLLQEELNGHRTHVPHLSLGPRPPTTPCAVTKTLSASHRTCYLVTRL
Nature of the experiment: cell-based. The note with it: CHO, read-out: whole-cell patch clamp in transfected CHO cells; potentiation of the sustained c. Background: The patch-clamp technique gives a direct electrical read-out from membranes.

Experiment [2] has as its target T2, ASIC1a (Rattus norvegicus, UniProt P55926).
T2 construct: gene Asic1
T2 sequence (P55926 1-526): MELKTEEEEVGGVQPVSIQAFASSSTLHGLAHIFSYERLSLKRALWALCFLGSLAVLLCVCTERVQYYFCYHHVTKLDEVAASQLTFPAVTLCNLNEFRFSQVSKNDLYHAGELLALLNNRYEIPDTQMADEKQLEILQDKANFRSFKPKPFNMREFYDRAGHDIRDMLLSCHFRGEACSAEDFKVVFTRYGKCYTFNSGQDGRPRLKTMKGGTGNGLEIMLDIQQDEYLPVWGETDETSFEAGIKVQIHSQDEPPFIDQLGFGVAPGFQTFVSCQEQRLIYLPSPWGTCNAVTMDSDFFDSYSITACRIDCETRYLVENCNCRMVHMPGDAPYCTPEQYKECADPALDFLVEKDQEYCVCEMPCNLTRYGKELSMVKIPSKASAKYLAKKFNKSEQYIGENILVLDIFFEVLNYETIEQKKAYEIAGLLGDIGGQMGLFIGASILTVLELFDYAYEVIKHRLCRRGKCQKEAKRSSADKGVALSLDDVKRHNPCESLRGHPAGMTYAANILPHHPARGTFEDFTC
As to the kind of experiment: cell-based. The note with it: CHO, read-out: whole-cell patch clamp in transfected CHO cells; 10 mM, voltage-dependent inhibi.

For experiment [3], the target named is T2, ASIC1a. Nature of the experiment: whole-cell patch clamp in transfected CHO cells; […], pH […], Idrug/Icontrol = […]. It counts as cell-based. The note with it: pH 6.5, read-out: whole-cell patch clamp in transfected CHO cells, 5 mM, pH 6.5, Idrug/Icontrol =.
Experiment [4] addresses T3, ASIC2a (Rattus norvegicus, UniProt Q62962).
T3 construct: gene Asic2
T3 sequence (Q62962 1-512): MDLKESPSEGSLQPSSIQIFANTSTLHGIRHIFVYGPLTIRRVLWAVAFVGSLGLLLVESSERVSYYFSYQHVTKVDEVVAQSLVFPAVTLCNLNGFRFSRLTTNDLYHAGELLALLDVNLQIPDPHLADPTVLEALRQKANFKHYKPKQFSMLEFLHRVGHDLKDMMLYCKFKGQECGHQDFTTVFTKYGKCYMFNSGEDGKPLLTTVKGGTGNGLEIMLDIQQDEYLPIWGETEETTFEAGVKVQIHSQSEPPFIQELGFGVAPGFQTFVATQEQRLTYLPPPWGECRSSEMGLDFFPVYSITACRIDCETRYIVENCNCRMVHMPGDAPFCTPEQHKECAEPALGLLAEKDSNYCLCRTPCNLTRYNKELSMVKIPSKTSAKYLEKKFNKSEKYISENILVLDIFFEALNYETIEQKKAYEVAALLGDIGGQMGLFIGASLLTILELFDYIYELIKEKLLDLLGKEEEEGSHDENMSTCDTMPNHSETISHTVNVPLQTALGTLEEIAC
Nature of the experiment: whole-cell patch clamp in transfected CHO cells; […], pH […], peak Idrug/Icontrol = […]. The experiment is classed as cell-based. The note with it: pH 5, read-out: whole-cell patch clamp in transfected CHO cells, 5 mM, pH 5.0, peak Idrug/Icontr.

Molecules are shown by their SMILES.

Regarding `CCCC[N+](CCCC)(CCCC)CCCC` [TBA, tetrabutylammonium], the activity at 1000 µM in experiment [1] was found to be 112 ± 8%.
Regarding `CC[N+](CC)(CC)CC` [TEA, tetraethylammonium], the activity at 10000 µM in experiment [2] turned out to be 70 ± 13%.
Take `CCCCC[N+](CCCCC)(CCCCC)CCCCC` [TPtA, tetrapentylammonium]: the remaining activity at 5000 µM in experiment [3] was 41 ± 6%. The activity at 5000 µM in experiment [4] turned out to be 71 ± 18%.
